Patent US20080194585A1, “Fungicidal Pyrazine Derivatives” (priority 2005, published 2008)
Like-named read-outs stand apart in the source and are kept apart here.

How the values were obtained:
Plasmopara viticola = experiment: Test D: grape downy mildew, spray after inoculation of grape seedlings; assay type: in vivo; conditions: Plasmopara viticola, 168 h, read-out: Test D disease control rating
From the text: Upon removal, disease ratings were made. […] A dash (-) indicates no test results.

Phytophthora infestans = experiment: whole plant or invertebrate; assay type: in vivo; conditions: Phytophthora infestans, in Solanum lycopersicum, topical, 144 h, read-out: Test F disease control rating
Septoria tritici = experiment: Test J: wheat leaf blotch, preventive spray on wheat seedlings; assay type: in vivo; conditions: Zymoseptoria tritici, 528 h, read-out: Test J disease control rating
From the text: A dash (-) indicates no test results.

fusarium graminearium = experiment: Test I: wheat head scab, preventive spray on wheat seedlings; conditions: Fusarium, in Triticum aestivum, topical, 192 h
Experimental: (the causal agent of wheat head scab) and incubated in a saturated atmosphere at 20° C. for 72 h, and then moved to a growth chamber at 22° C. for 5 days, after which disease ratings were made.

[1] = system: Puccinia recondita f. sp. tritici; experiment: Test K: wheat leaf rust, preventive spray on wheat seedlings; conditions: Puccinia recondita, in Triticum aestivum, 192 h, read-out: Test K disease control rating
Botrytis cinerea = experiment: Test E: tomato botrytis, preventive spray on tomato seedlings; conditions: Botrytis cinerea, in Solanum lycopersicum, topical, 72 h, read-out: Test E disease control rating
Septoria nodorum = experiment: Test H: wheat glum blotch, preventive spray on wheat seedlings; conditions: Parastagonospora nodorum, in Triticum aestivum, topical, 168 h
Experimental: (the causal agent of wheat glum blotch) and incubated in a saturated atmosphere at 20° C. for 48 h, and then moved to a growth chamber at 22° C. for 5 days, after which disease ratings were made.

[2] = system: Erysiphe graminis f. sp. tritici; experiment: Test L: wheat powdery mildew, preventive spray on wheat seedlings; conditions: Blumeria graminis, in Triticum aestivum, 168 h
Sclerotinia sclerotiorum = experiment: Test C: cucumber white mold, preventive spray on cucumber seedlings; conditions: Sclerotinia sclerotiorum, in Cucumis sativus, 168 h
Pythium aphanidermatum = experiment: Test A: bluegrass pythium blight, preventive spray on bluegrass seedlings; conditions: Pythium aphanidermatum, 120 h, read-out: Test A disease control rating
Rhizoctonia oryzae = experiment: Test G: turf brown patch, preventive spray on creeping bent grass seedlings; conditions: Waitea circinata, in Agrostis stolonifera, topical, 144 h
Experimental: (the causal agent of turf brown patch) and incubated in a saturated atmosphere at 27° C. for 24 h, and then moved to a growth chamber at 27° C. for 5 days, after which disease ratings were made.

[3] = system: Colletotrichum orbiculare; experiment: Test B: cucumber Colletotrichum anthracnose, preventive spray on cucumber seedlings; conditions: Colletotrichum orbiculare, in Cucumis sativus, 144 h
[4] = 40 ppm (marked *), 100 = 100% disease control, 0 = no control

For CC[C@H](C)Cn1c(-c2c(F)cc(F)cc2F)c(Cl)nc(-n2cccn2)c1=O [Compound 155, 5-Chloro-1-[(2S)-2-methylbutyl)-3-(1H-pyrazol-1-yl)-6-(2,4,6-trifluorophenyl)-2(1H)-pyrazinone], the pest or weed control at 40 ppm (Plasmopara viticola; 40 ppm (*)) was 47%, the pest or weed control at 40 ppm (Phytophthora infestans) was 0% and the pest or weed control at 40 ppm (Septoria tritici; 40 ppm (*)) was 100%. The melting point was 112 to 113 °C, the pest or weed control at 40 ppm (fusarium graminearium; read-out: Test I disease control rating, 40 ppm (*)) was 0% and the pest or weed control at 40 ppm [1] was 100%. The pest or weed control at 40 ppm (Botrytis cinerea) was 100%, the pest or weed control at 40 ppm (Septoria nodorum; read-out: Test H disease control rating, 40 ppm (*)) was 100% and the pest or weed control at 40 ppm ([2]; read-out: Test L disease control rating, 40 ppm (*)) was 100%. It also gave a pest or weed control at 40 ppm (Sclerotinia sclerotiorum; read-out: Test C disease control rating, 40 ppm (*)) of 99%, a pest or weed control at 40 ppm (Pythium aphanidermatum) of 0% and a pest or weed control at 40 ppm (Rhizoctonia oryzae; read-out: Test G disease control rating, 40 ppm (*)) of 100%. The pest or weed control at 40 ppm ([3]; read-out: Test B disease control rating, 40 ppm (*)) was 100%.
With COc1ccc(Cn2c(-c3c(F)cccc3F)c(Cl)nc(-n3cccn3)c2=O)cc1 [Compound 271, 5-Chloro-6-(2,6-difluorophenyl)-1-[(4-methoxyphenyl)methyl]-3-(1H-pyrazol-1-yl)-2(1H)-pyrazinone] the pest or weed control at 40 ppm (Plasmopara viticola; [4]) was 0%, the pest or weed control at 40 ppm (Phytophthora infestans) was 0% and the pest or weed control at 40 ppm (Septoria tritici; [4]) was 0%. For the same compound, the melting point was 235 to 236 °C, the pest or weed control at 40 ppm (fusarium graminearium; read-out: Test I disease control rating, 40 ppm (marked *), 100 = 100% disease control, 0 = no control) was 0% and the pest or weed control at 40 ppm [1] was 32%. For the same compound, the pest or weed control at 40 ppm (Botrytis cinerea) was 0%, the pest or weed control at 40 ppm (Septoria nodorum; read-out: Test H disease control rating, 40 ppm (marked *), 100 = 100% disease control, 0 = no control) was 0% and the pest or weed control at 40 ppm ([2]; read-out: Test L disease control rating, 40 ppm (marked *), 100 = 100% disease control, 0 = no control) was 0%. The pest or weed control at 40 ppm (Sclerotinia sclerotiorum; read-out: Test C disease control rating, 40 ppm (marked *), 100 = 100% disease control, 0 = no control) was 0%, the pest or weed control at 40 ppm (Pythium aphanidermatum) was 0% and the pest or weed control at 40 ppm (Rhizoctonia oryzae; read-out: Test G disease control rating, 40 ppm (marked *), 100 = 100% disease control, 0 = no control) was 0%. The pest or weed control at 40 ppm ([3]; read-out: Test B disease control rating, 40 ppm (marked *), 100 = 100% disease control, 0 = no control) was 0%.
